Each structure is given as a SMILES string. ≈ marks a conversion by molar mass, not a printed value.

What all share (test): microbe, parasite or virus in culture
Holding throughout (type): cell-based, Mycobacterium tuberculosis

For test [1], the system named is rifampin (RMP)-resistant Mtb (SRI 1367). To be noted: for MIC: Mycobacterium tuberculosis, 168 h, read-out: MIC RMP-R, broth microdilution, 7 days at 37 °C.
Test [2] deals with ofloxacin (OFX)-resistant Mtb (SRI 4000). Particulars: for MIC: Mycobacterium tuberculosis, 168 h, read-out: MIC OFX-R, broth microdilution, 7 days at 37 °C; for MIC OFX-R: broth microdilution, 7 days at 37 °C. In general terms: Broth dilution looks for growth in wells or tubes with falling amounts of substance.
Test [3] deals with isoniazid (INH)-resistant Mtb (SRI 1369). Particulars: for MIC: Mycobacterium tuberculosis, 168 h, read-out: MIC INH-R, broth microdilution, 7 days at 37 °C.
Where [4] appears, read: broth microdilution, 7 days at 37 °C.

Consider `CCOC(=O)CC(=O)NCC(=O)N1CCN(c2ccc(N3CC(Cn4ccnn4)OC3=O)cc2F)CC1` (stereo not drawn) [PH-169], for which the MIC in test [1] was 1.45 µM (≈ 0.75 µg/mL); in test [2] it was 1.45 µM (≈ 0.75 µg/mL); in test [3], 1.45 to 2.9 µM (≈ 0.75 to 1.5 µg/mL).
For the compound `CC(=O)NCC(=O)N1CCN(c2ccc(N3CC(Cn4ccnn4)OC3=O)cc2F)CC1` (stereo not drawn) [PH-165], the MIC came out at 6.7 µM (≈ 2.98 µg/mL) in test [1], 3.4 µM (≈ 1.51 µg/mL) in test [2] and 4.5 µM (≈ 2 µg/mL) in test [3].
Regarding `Cc1cn(CC2CN(c3ccc(N4CCN(C(=O)CNC(=O)c5cccnc5)CC4)c(F)c3)C(=O)O2)nn1` (stereo not drawn) [PH-185], the MIC is 5.7 µM (≈ 2.98 µg/mL) in test [1], 1.44 µM (≈ 0.752 µg/mL) in test [2] and 2.9 µM (≈ 1.52 µg/mL) in test [3].
Consider `O=C(NCC(=O)N1CCN(c2ccc(N3CC(Cn4ccnn4)OC3=O)cc2F)CC1)c1cc([N+](=O)[O-])cc([N+](=O)[O-])c1` (stereo not drawn) [PH-193], for which the MIC came out at 0.22 µM (≈ 0.131 µg/mL) in test [1], 0.052 µM (≈ 0.0311 µg/mL) in test [2] and 0.42 µM (≈ 0.251 µg/mL) in test [3].
The matching figures for `O=C(NCC(=O)N1CCN(c2ccc(N3CC(Cn4ccnn4)OC3=O)cc2F)CC1)c1cccnc1` (stereo not drawn) [PH-195]: 0.98 µM (≈ 0.498 µg/mL), 0.49 µM (≈ 0.249 µg/mL) and 2 µM (≈ 1.02 µg/mL).
The matching figures for `CCOC(=O)CC(=O)NCC(=O)N1CCN(c2ccc(N3CC(Cn4cc(C)nn4)OC3=O)cc2F)CC1` (stereo not drawn) [PH-150]: 2.9 µM (≈ 1.54 µg/mL), 2.9 µM (≈ 1.54 µg/mL) and 2.9 µM (≈ 1.54 µg/mL).
In the case of `NNC(=O)c1ccncc1` [INH, Isoniazid, reference compound], the MIC in test [1] was 0.15 µM (≈ 0.0206 µg/mL).
For the compound `Cc1cn(CC2CN(c3ccc(N4CCN(C(=O)CNC(=O)C(Cl)Cl)CC4)c(F)c3)C(=O)O2)nn1` (stereo not drawn) [PH-182], the values for the MIC in test [1], in test [2] and in test [3] were 0.95 µM (≈ 0.502 µg/mL), 0.47 µM (≈ 0.248 µg/mL) and 0.95 µM (≈ 0.502 µg/mL), respectively.
Consider `CO[C@H]1/C=C/O[C@@]2(C)Oc3c(C)c(O)c4c(O)c(c(/C=N/N5CCN(C)CC5)c(O)c4c3C2=O)NC(=O)/C(C)=C\C=C\[C@H](C)[C@H](O)[C@@H](C)[C@@H](O)[C@@H](C)[C@H](OC(C)=O)[C@@H]1C` [RMP, Rifampicin, reference compound], for which the MIC is 0.95 µM (≈ 0.782 µg/mL) in test [2] and 0.06 µM (≈ 0.0494 µg/mL) in test [3].
Take `O=C(NCC(=O)N1CCN(c2ccc(N3CC(Cn4ccnn4)OC3=O)cc2F)CC1)c1ccc([N+](=O)[O-])o1` (stereo not drawn) [PH-189]: in test [2], the MIC fell in the range of 0.03 to 0.056 µM (≈ 0.0163 to 0.0304 µg/mL) and the “MIC OFX-R” value was found to be 0.03 µM (≈ 0.0163 µg/mL). The MIC in test [3] lay within 0.056 to 0.11 µM (≈ 0.0304 to 0.0597 µg/mL). For the same compound, the “MIC INH-R” value in test [3] (setting [4]) was 0.057 to 0.12 µM.
As to `Cc1cn(CC2CN(c3ccc(N4CCN(C(=O)CNC(=O)c5cc([N+](=O)[O-])cc([N+](=O)[O-])c5)CC4)c(F)c3)C(=O)O2)nn1` (stereo not drawn) [PH-181], the values for the MIC in test [1], in test [2] and in test [3] were 0.82 µM (≈ 0.501 µg/mL), 0.82 µM (≈ 0.501 µg/mL) and 0.85 to 1.64 µM (≈ 0.52 to 1 µg/mL), respectively.
As to `NCC(=O)N1CCN(c2ccc(N3CC(Cn4ccnn4)OC3=O)cc2F)CC1` (stereo not drawn) [PH-172], the values for the MIC in test [1], in test [2] and in test [3] were 3.6 µM (≈ 1.45 µg/mL), 3.6 µM (≈ 1.45 µg/mL) and 7.2 µM (≈ 2.9 µg/mL), respectively.
As to `Cc1cn(CC2CN(c3ccc(N4CCN(C(=O)CNC(=O)c5ccc([N+](=O)[O-])o5)CC4)c(F)c3)C(=O)O2)nn1` (stereo not drawn) [PH-145], the values for the MIC in test [1], in test [2] and in test [3] were 0.11 to 0.46 µM (≈ 0.0612 to 0.256 µg/mL), 0.03 to 0.056 µM (≈ 0.0167 to 0.0312 µg/mL) and 0.056 to 0.11 µM (≈ 0.0312 to 0.0612 µg/mL), respectively. In test [1] (setting [4]), the “MIC RMP-R” value worked out at 0.11 µM (≈ 0.0612 µg/mL). Besides, the “MIC OFX-R” value in test [2] turned out to be 0.056 µM (≈ 0.0312 µg/mL).
For `Cc1cn(CC2CN(c3ccc(N4CCN(C(=O)CN)CC4)c(F)c3)C(=O)O2)nn1` (stereo not drawn) [PH-151], the MIC in test [1] was found to be 5.8 µM (≈ 2.42 µg/mL); in test [2] it was 11.6 µM (≈ 4.84 µg/mL); in test [3] it was 11.6 µM (≈ 4.84 µg/mL).

The values are drawn from paper PMC5748531, “Antimycobacterial Activities of N-Substituted-Glycinyl 1H-1,2,3-Triazolyl Oxazolidinones and Analytical Method Development and Validation for a Representative Compound” (Scientia Pharmaceutica, 2017).
